We go through 3 molecules from patent publication US12077503B2, “Substituted cyclic amides and their use as herbicides” (FMC CORPORATION, priority 2015, dated 2024).

Common to all, as to type: in vivo
Assay [1] concerns barnyardgrass (Echinochloa crus-galli). As to the kind of experiment: Test A postemergence. The conditions noted are these: Echinochloa crus-galli, post-emergence, 240 h, postemergence; for pest or weed control at 125 g/ha: 125 g ai/ha, visual injury on 0 to 100 scale (0 no effect, 100 complete control); for pest or weed control at 500 g/ha: 500 g ai/ha. The method in brief: (§1)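 Each rating is a visual injury score from 0 to 100 given about 10 d after treatment, judged against untreated controls kept alongside in the greenhouse. In loam soil–sand blend, seeds got a preemergence directed soil spray, while postemergence plants were 2 to 10 cm tall at spraying.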

Assay [2] relates to Galium (catchweed bedstraw, Galium aparine). Description: Test A postemergence. The conditions noted are these: Galium, post-emergence, 240 h, postemergence; for pest or weed control at 125 g/ha: 125 g ai/ha, visual injury on 0 to 100 scale (0 no effect, 100 complete control); for pest or weed control at 500 g/ha: 500 g ai/ha. The method, boiled down:
as §1

The test system of assay [3] is ragweed (common ragweed, Ambrosia elatior). As to the kind of experiment: Test A postemergence. Conditions: Ambrosia artemisiifolia, post-emergence, 240 h, postemergence, read-out: Ragweed plant response rating; for pest or weed control at 125 g/ha: 125 g ai/ha, visual injury on 0 to 100 scale (0 no effect, 100 complete control), approx. 10 d; for pest or weed control at 500 g/ha: 500 g ai/ha, 0 to 100 scale, 0 is no effect, 100 is complete control. The method in brief:
as §1

Assay [4] concerns corn (Zea mays). As to the kind of experiment: Test A postemergence. Conditions: Zea mays, post-emergence, 240 h, postemergence; for plant injury at 125 g/ha: 125 g ai/ha, visual injury on 0 to 100 scale (0 no effect, 100 complete control); for plant injury at 125 g/ha / plant injury at 500 g/ha: read-out: Corn plant response rating; for plant injury at 500 g/ha: 0 to 100 scale, 0 is no effect, 100 is complete control. The method, boiled down:
as §1

Assay [5] concerns rice (Oryra sativa). Description: Test B flooded paddy test. The conditions noted are these: Oryza sativa, 250 g ai/ha, Flood; 0 to 100 scale where 0 is no effect and 100 is complete control; read-out: Rice plant response rating. The method, boiled down: (§2)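 Percent control, visually estimated after 13–15 d in the greenhouse on a 0–100 basis, compares treated pots with untreated ones; compound was put into paddy water 3 cm above the soil when plants had two leaves.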

In assay [6] the test system is ducksalad (Heteranthera limosa). Description: Test B flooded paddy test. Conditions: Heteranthera limosa, 250 g ai/ha, Flood; 0 to 100 scale where 0 is no effect and 100 is complete control; read-out: Ducksalad plant response rating. The method in brief:
as §2

Assay [7] deals with barnyardgrass (Echinochloa crus-galli). As to the kind of experiment: Test B flooded paddy test. The conditions noted are these: Echinochloa crus-galli, 250 g ai/ha, Flood; 0 to 100 scale where 0 is no effect and 100 is complete control; read-out: Barnyardgrass plant response rating. The method, boiled down:
as §2

In assay [8] the test system is sedge, umbrella (small-flower umbrella sedge, Cyperus difformis). Description: Test B flooded paddy test. The conditions noted are these: Cyperus difformis, 250 g ai/ha, Flood; 0 to 100 scale where 0 is no effect and 100 is complete control; read-out: Sedge, Umbrella plant response rating. The method, boiled down: as §2
The test system of assay [9] is giant foxtail (Setaria faberii). Description: Test A preemergence. Conditions: Setaria faberi, pre-emergence, 240 h; for pest or weed control at 125 g/ha: 125 g ai/ha; for pest or weed control at 500 g/ha: 500 g ai/ha, visual injury rating about 10 d after treatment, 0 to 100 scale (0 no effect, 100 complete control). The method, boiled down:
as §1

Assay [10] has as its system ryegrass, Italian (Italian ryegrass, Lolium multiflorum). Description: Test A preemergence. Conditions: Lolium multiflorum, pre-emergence, 240 h; for pest or weed control at 125 g/ha: 125 g ai/ha; for pest or weed control at 500 g/ha: 500 g ai/ha, visual injury rating about 10 d after treatment, 0 to 100 scale (0 no effect, 100 complete control). The method in brief:
as §1

In assay [11] the test system is Kochia (Kochia scoparia). As to the kind of experiment: Test A preemergence. The conditions noted are these: Bassia scoparia, pre-emergence, 240 h; for pest or weed control at 125 g/ha: 125 g ai/ha; for pest or weed control at 500 g/ha: 500 g ai/ha, visual injury rating about 10 d after treatment, 0 to 100 scale (0 no effect, 100 complete control). The method in brief:
as §1

The test system of assay [12] is barnyardgrass (Echinochloa crus-galli). Description: Test A preemergence. Conditions: Echinochloa crus-galli, pre-emergence, 240 h; for pest or weed control at 125 g/ha: 125 g ai/ha; for pest or weed control at 500 g/ha: 500 g ai/ha, visual injury rating about 10 d after treatment, 0 to 100 scale (0 no effect, 100 complete control). The method in brief:
as §1

In assay [13] the test system is ragweed (common ragweed, Ambrosia elatior). Description: Test A preemergence. Conditions: Ambrosia artemisiifolia, pre-emergence, 240 h; for pest or weed control at 125 g/ha: 125 g ai/ha; for pest or weed control at 500 g/ha: 500 g ai/ha, visual injury rating about 10 d after treatment, 0 to 100 scale (0 no effect, 100 complete control). The method, boiled down:
as §1

Assay [14] has as its system pigweed (Amaranthus retroflexus). Description: Test A preemergence. The conditions noted are these: Amaranthus retroflexus, pre-emergence, 240 h; for pest or weed control at 125 g/ha: 125 g ai/ha; for pest or weed control at 500 g/ha: 500 g ai/ha, visual injury rating about 10 d after treatment, 0 to 100 scale (0 no effect, 100 complete control).
Where [15] appears, read: approx. 10 d, read-out: Barnyardgrass plant response rating.
Setting [16] is: approx. 10 d, read-out: Galium plant response rating.
The mark [17] stands for this setting: preemergence, read-out: Foxtail, Giant plant response rating.
Where [18] appears, read: preemergence, read-out: Ryegrass, Italian plant response rating.
Where [19] appears, read: preemergence, read-out: Kochia plant response rating.
[20] abbreviates: preemergence, read-out: Barnyardgrass plant response rating.
[21] abbreviates: preemergence, read-out: Ragweed plant response rating.
Setting [22] is: preemergence, read-out: Pigweed plant response rating.
[23] abbreviates: 0 to 100 scale, 0 is no effect, 100 is complete control, read-out: Barnyardgrass plant response rating.
[24] abbreviates: 0 to 100 scale, 0 is no effect, 100 is complete control, read-out: Galium plant response rating.
[25] abbreviates: preemergence, 0 to 100 scale where 0 is no effect and 100 is complete control, approx. 10 d, read-out: Foxtail, Giant plant response rating.
[26] abbreviates: preemergence, 0 to 100 scale where 0 is no effect and 100 is complete control, approx. 10 d, read-out: Ryegrass, Italian plant response rating.
Setting [27] is: preemergence, 0 to 100 scale where 0 is no effect and 100 is complete control, approx. 10 d, read-out: Kochia plant response rating.
[28] abbreviates: preemergence, 0 to 100 scale where 0 is no effect and 100 is complete control, approx. 10 d, read-out: Barnyardgrass plant response rating.
Setting [29] is: preemergence, 0 to 100 scale where 0 is no effect and 100 is complete control, approx. 10 d, read-out: Ragweed plant response rating.
The mark [30] stands for this setting: preemergence, 0 to 100 scale where 0 is no effect and 100 is complete control, approx. 10 d, read-out: Pigweed plant response rating.

Structures are written as SMILES. Where two headings read alike, the source gives them in different places.

`Cc1cc([C@H]2CNC(=O)[C@@H]2C(=O)Nc2ccccc2Cl)ccc1C(F)(F)F` [Compound 1044]: the pest or weed control at 125 g/ha in assay [1] (setting [15]) is 70%; in assay [2] (setting [16]), 40%; in assay [3], 20%; in assay [9] (Preemergence, visual injury rating after approximately 10 d, read-out: Foxtail, Giant plant response rating (0 to 100 scale, 0 is no effect, 100 is complete control)), 70%; in assay [10] (Preemergence, visual injury rating after approximately 10 d, read-out: Ryegrass, Italian plant response rating (0 to 100 scale, 0 is no effect, 100 is complete control)) it was 0%; in [11] (Preemergence, visual injury rating after approximately 10 d, read-out: Kochia plant response rating (0 to 100 scale, 0 is no effect, 100 is complete control)) it was 0%. Moreover, the pest or weed control at 125 g/ha worked out at 90% in [12] (Preemergence, visual injury rating after approximately 10 d, read-out: Barnyardgrass plant response rating (0 to 100 scale, 0 is no effect, 100 is complete control)); 0% in assay [13] (Preemergence, visual injury rating after approximately 10 d, read-out: Ragweed plant response rating (0 to 100 scale, 0 is no effect, 100 is complete control)); 0% in assay [14] (Preemergence, visual injury rating after approximately 10 d, read-out: Pigweed plant response rating (0 to 100 scale, 0 is no effect, 100 is complete control)). The pest or weed control at 500 g/ha in [1] (visual injury, 0 to 100 scale (0 no effect, 100 complete control), approx. 10 d, read-out: Plant response rating, Barnyardgrass) was found to be 80%; in assay [2] (visual injury, 0 to 100 scale (0 no effect, 100 complete control), approx. 10 d, read-out: Plant response rating, Galium) it was 60%; in assay [9] (setting [17]), 90%; in assay [10] (setting [18]), 50%; in assay [11] (setting [19]) it was 50%; in [12] (setting [20]) it was 90%. The pest or weed control at 500 g/ha in assay [13] (setting [21]) and in [14] (setting [22]) was 30% throughout. For the same molecule, the plant injury at 125 g/ha in [4] (approx. 10 d) is 0%. The Corn plant response rating (crop injury, 0 = no effect, 100 = complete kill) at 500 g/ha in assay [4] (500 g ai/ha, visual injury, 0 to 100 scale (0 no effect, 100 complete control), approx. 10 d) is 50%. In addition, the pest or weed control at 250 g/ha in [5], in assay [6], in [7] and in [8] was 0% each time.
Take `Cc1cc([C@H]2CN(C)C(=O)[C@@H]2C(=O)Nc2ccc(F)cc2F)ccc1Br` [Compound 1100]: the pest or weed control at 125 g/ha in assay [1] (setting [15]) is 60%; in assay [2] (setting [16]), 0%; in assay [3] it was 0%; in [9] (setting [25]), 90%; in assay [10] (setting [26]) it was 0%; in [11] (setting [27]), 50%. Moreover, the pest or weed control at 125 g/ha stood at 90% in [12] (setting [28]), 0% in assay [13] (setting [29]) and 0% in assay [14] (setting [30]). Further, the pest or weed control at 500 g/ha in assay [1] (setting [23]) was 70%; in assay [2] (setting [24]), 20%; in assay [3] it was 0%; in assay [9] (setting [17]), 90%; in [10] (setting [18]) it was 30%; in assay [11] (setting [19]), 60%. Moreover, the pest or weed control at 500 g/ha is 90% in [12] (setting [20]), 0% in assay [13] (setting [21]) and 0% in assay [14] (setting [22]). The plant injury at 125 g/ha in [4] (approx. 10 d) is 0%. In addition, in assay [4] (500 g ai/ha), the plant injury at 500 g/ha came out at 20%. The pest or weed control at 250 g/ha in assay [5] was 0%; in [6], 75%; in assay [7] it was 0%; in [8] it was 0%.
As to `CN1C[C@H](c2cc(F)cc(F)c2)[C@@H](C(=O)Nc2ccncc2F)C1=O` [Compound 1095], the pest or weed control at 125 g/ha in assay [1] (setting [15]), in assay [2] (setting [16]), in assay [3], in assay [9] (setting [25]), in [10] (setting [26]) and in [11] (setting [27]) was 0% throughout. Moreover, the pest or weed control at 125 g/ha in assay [12] (setting [28]), in assay [13] (setting [29]) and in [14] (setting [30]) was 0% throughout. Besides, the pest or weed control at 500 g/ha amounted to 0% in assay [1] (setting [23]); 0% in assay [2] (setting [24]); 0% in assay [3]; 90% in assay [9] (setting [17]); 0% in [10] (setting [18]); 0% in [11] (setting [19]). For the same molecule, the pest or weed control at 500 g/ha in assay [12] (setting [20]) is 60%; in [13] (setting [21]) it was 0%; in [14] (setting [22]), 30%. Further, the plant injury at 125 g/ha in assay [4] (approx. 10 d) came out at 0%. Also, the plant injury at 500 g/ha in assay [4] (500 g ai/ha) was determined as 0%. The pest or weed control at 250 g/ha in [5] was found to be 0%; in [6], 50%; in assay [7] it was 0%; in assay [8] it was 0%.
